This is an account of results in PubChem BioAssay (NCI).

Common to all, as to assay: DTP human tumour cell line panel, 48 h
Test [1] relates to SF-268 CNS.
Test [2] concerns SK-MEL-28 melanoma.
Test [3] deals with CAKI-1 renal.
Test [4] relates to M19-MEL melanoma.
Test [5] deals with UACC-62 melanoma.
The subject of test [6] is LXFL 529 NSCLC.
Test [7] has as its system RXF 393 renal.
Test [8] relates to KM20L2 colon.
In test [9] the test system is HS 578T breast.
Test [10] concerns MDA-MB-435.

Several values for one entry are separate records, joined by “and”; a condition that tells them apart may be missing. Identical values can stand only once.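 In this assay, cells in 96-well plates receive the compound at five concentrations for 48 hours. Endpoints are linearly interpolated between the surrounding concentrations. GI50 marks 50% less growth. TGI denotes the concentration required for complete inhibition of growth.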

As for `CC[O-].CC[O-].[O-]c1ccccc1C=Nc1ccccc1.[O-]c1ccccc1C=Nc1ccccc1.[Ti+4]`, the GI50 (commonly the concentration at which growth is held to half of that of the control) in test [1] was more than 100 µM; in test [2], more than 100 µM; in [3], 85.1 µM; in test [4] it was more than 100 µM; in test [5] it was more than 100 µM; in test [6], 2.94 µM. Moreover, the GI50 is more than 100 µM in test [7] and 23.7 µM in test [8]. Also, the TGI in test [1], in test [2], in test [3], in test [4], in test [5] and in test [6] was more than 100 µM in each case. Further, the TGI in test [7] and in test [8] was more than 100 µM each time.

For the molecule `COC1=CC(=O)c2ccc(C(C)C)cc2C1(C)C1=NC(C)(C)CO1` (stereo not given), the TGI in test [1], in test [2], in test [3], in test [4], in [5] and in test [6] was more than 100 µM in each case. The TGI in [7] and in test [8] was more than 100 µM each time.

In the case of `C[C@]12CCC[C@H](OC=O)C1(O)C[C@H](C(=O)O)CC2` (stereo not given in full), the TGI (in general, the concentration giving total growth inhibition) in test [1] is more than 100 µM; in test [2] it was more than 100 µM; in [3] it was more than 100 µM; in [4] it was more than 100 µM; in [5], 32.5 µM; in test [6], more than 100 µM. Besides, the results for the concentration for total growth inhibition (TGI) in [7] and in test [8] were more than 100 µM and 35.2 µM, respectively.

For the molecule `COc1ccc2cc(C(=O)c3ccccc3C(=O)O)ccc2c1`, the total growth inhibition concentration (TGI) in test [1], in [2], in test [3], in [4], in [5] and in test [6] was more than 100 µM each time. Also, the TGI in [7] and in test [8] was more than 100 µM throughout.

`CCCC(OCC)(OCC)OCC`: the TGI in test [1], in [2], in [3], in test [4], in test [5] and in test [6] was more than 100 µM in each case. The TGI in [7] and in test [8] was more than 100 µM each time.

As for `COc1ccc2[nH]c3c4c(c5cc(C(C)(C)C)ccc5c3c2c1)C(=O)N(c1ccccc1)C4=O`, the TGI in test [1], in test [2], in test [3], in test [4], in test [5] and in test [6] was more than 100 µM in each case. Also, the TGI in test [7] and in [8] was more than 100 µM each time.

Turning to `CC(=O)[O-].CC(=O)[O-].[Mn+2].c1ccc(/C(=N\Nc2ccccn2)c2ccccn2)cc1`, the concentration for total growth inhibition (TGI) turned out to be 13.5 µM in test [1]; 19.7 µM in test [2]; 8.47 µM in [3]; 70.2 µM in [9]; 14.3 µM in test [4]; 1.13 µM in [5]. For the same molecule, the TGI in test [10] was found to be 18.7 µM; in test [6], 17.2 µM; in test [7] it was 14 µM; in [8], 15.8 µM. Also, the GI50 in test [3] was 0.0393 µM.

Consider `CCCCCCCC[N+](C)(C)Cc1ccc(C[N+](C)(C)CCCCCCCC)cc1`, for which the TGI in test [1], in test [2], in test [3], in [4], in test [5] and in [6] was more than 100 µM in each case. The TGI in test [7] and in test [8] was more than 100 µM each time.

Take `O=C1c2ccccc2C(=O)N1/N=C\c1ccc(Br)cc1`: the GI50 in test [1], in [2], in [4], in test [5], in test [6] and in test [8] was more than 100 µM each time. Also, the TGI in test [1] is more than 100 µM; in test [2] it was more than 100 µM; in test [3], more than 10 µM; in test [4], more than 100 µM; in test [5] it was more than 100 µM; in [6] it was more than 100 µM. Besides, the results for the TGI in test [7] and in test [8] were more than 10 µM and more than 100 µM, respectively.

For `COc1cc(C(=O)C/C(CCC(=O)Nc2ccccc2[N+](=O)[O-])=N\NC(=O)C(N)=O)ccc1O`, the concentration for total growth inhibition (TGI) in [1], in [2], in test [3], in test [4], in [5] and in test [6] was more than 100 µM in each case. Also, the TGI in test [7] and in test [8] was more than 100 µM in each case.

As for `N=c1nc(N)c2cc3c(N)nc(=N)c3cc12`, the TGI in test [1] was 13.1 µM; in [2] it was 10.7 µM; in test [3], 41.6 µM; in test [9], more than 100 µM; in test [4] it was 5.45 µM; in [5], 23.5 µM. In addition, the TGI is more than 100 µM in [10], more than 100 µM in test [6], 25.3 µM in test [7] and more than 100 µM in [8].

For the molecule `C=C(C)C(=O)NC(N)=NC#N`, the GI50 in test [1] was 139 µM; in test [2], 75 µM; in test [4], 42.8 µM; in test [5], 87 µM; in [7], 63 µM. The TGI in test [1] was 62.5 µM and 354 µM; in test [2], > 56.9 µM and 205 µM; in test [3], 44.7 µM and 82.9 µM; in [9], 797 µM; in [4], 50.2 µM and 166 µM; in test [5], > 81.7 µM and 230 µM. The concentration for total growth inhibition (TGI) is 259 µM in [10]; 191 µM in test [6]; 65.7 µM and 200 µM in test [7]; 232 µM in [8].

Regarding `CC1(C)CC23C(=O)N(c4ccccc4)C(=Nc4ccccc4)NC2=CC(C#N)=C(C#N)C3O1` (stereo not given), the total growth inhibition concentration (TGI) in test [1], in test [2], in [3], in test [4], in [5] and in test [6] was more than 100 µM in each case. In addition, the TGI in [7] and in test [8] was more than 100 µM each time.

Consider `Cc1cc(C)c(C(=O)O)c(N)c1O`, for which the TGI in [1], in [2], in [3], in test [4], in [5] and in test [6] was more than 100 µM in each case. Further, the TGI in [7] and in test [8] was more than 100 µM in each case.

On to `Cc1nc(NC(=S)NC(=O)c2ccc(Cl)c(Cl)c2)sc1C(=O)/C=C/c1ccccc1[N+](=O)[O-]`, for which the TGI in test [1] was more than 100 µM; in test [2] it was 78.4 µM; in test [3], 47.3 µM; in [4], 79.7 µM; in test [5] it was 28.5 µM; in test [6] it was 74.3 µM. Moreover, the TGI is 41 µM in test [7] and 35.9 µM in test [8].

In the case of `Cc1cc(N(CCC#N)CCC#N)ccc1/C=C1/CN(N2C(=O)/C(=C/c3ccc(N(CCC#N)CCC#N)cc3C)N=C2c2ccccc2)C(c2ccccc2)=N1`, the TGI in test [1], in [2], in test [3], in test [4], in test [5] and in test [6] was more than 100 µM in each case. The results for the TGI in test [7] and in [8] were 76.8 µM and more than 100 µM, respectively.

For `CC1=CC(=O)C(C)(C2=NC(C)(C)CO2)c2ccccc21` (stereo not given), the TGI in [1], in test [2], in test [3], in test [4], in test [5] and in [6] was more than 100 µM each time. For the same molecule, the total growth inhibition concentration (TGI) in test [7] and in [8] was more than 100 µM in each case.

`Nn1c(CCCl)nc2c(Br)cc(Br)cc2c1=O`: the TGI is more than 100 µM in test [1]; more than 100 µM in [2]; more than 93.2 µM in test [3]; more than 82 µM in [4]; more than 83.8 µM in test [5]; 69.3 µM in test [6]. For the same molecule, the values for the concentration for total growth inhibition (TGI) in test [7] and in [8] were more than 100 µM and 65.4 µM, respectively.
